Reference: article PMC9798707, “Targeting SOST using a small-molecule compound retards breast cancer bone metastasis” (Molecular Cancer, 2022)

Target: T1, SOST (Homo sapiens, UniProt Q9BQB4)
T1 construct: commercial recombinant SOST (SinoBio 10593-H07H), biotinylated and immobilized on Octet SSA biosensors
T1 sequence (Q9BQB4 24-213): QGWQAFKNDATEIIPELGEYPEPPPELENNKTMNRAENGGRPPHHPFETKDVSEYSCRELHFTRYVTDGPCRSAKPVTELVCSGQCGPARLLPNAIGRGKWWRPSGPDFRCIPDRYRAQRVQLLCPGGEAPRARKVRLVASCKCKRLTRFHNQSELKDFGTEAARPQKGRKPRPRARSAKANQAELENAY
Assay: biochemical
Set-up: biolayer interferometry (Octet K2), compound binding to immobilized biotinylated SOST, multi-concentration
Conditions: multi-concentration BLI, 30 C
Description: The affinity of S6 binding to SOST was measured, as described previously using an Octet K2 instrument (ForteBio). All assays were run at 30 °C with continuous shaking of 1000 RPM using the assay buffer of 0.1% BSA, 0.01% Tween-20 and 1% DMSO in PBS. SOST (10,593-H07H, SinoBio, Beijing, China) at 0.15 mg/ml was dissolved in sterile water, biotinylated and immobilized onto the Octet SSA biosensors. S6 (C29H24N6O2S, molecular weight 520.62, Chemdiv, USA) was dissolved in PBS and adjusted to different concentrations for BLI. After each round of association and disassociation, the SOST-contained sensors were washed with the assay buffer for 10 min to remove nonspecifically bound molecules. Raw kinetic data were obtained. The kon and koff values were analyzed using the software provided and the Kd values were calculated, based on double reference subtraction. We next sought to model the interaction of SOST with STAT3 and identify its inhibitors from a small-molecule chemical library (Fig. 4A). […] Subsequently, we performed virtual screening for compounds that might block the binding of SOST to STAT3 (Fig. 4C). We screened approximately 120,000 compounds and obtained 38 candidates. We tested single-concentration of them in BLI test. Data from 35 of these compounds are shown in Figure S4 and SI Table 1, except for compounds 2, 10, and 25, which could not be detected due to poor solubility. […] compounds (6, 11, 12, 17, 22, 24, 34, 38) were screened by multi-concentration gradients to obtain R2, Kd, kdis, and response parameters (Fig. 4D-E, Fig. S5 and SI Table 2). Four compounds, 6, 11, 28, and 34, were selected for drug sensitivity testing (Fig. 4F and Fig. S5). […] S6 boudn to SOST with a high affinity (Fig. 4G).

Q: For `Cc1ccc(-c2nnc(Nc3ccccc3)c3ccccc23)cc1S(=O)(=O)NCc1nc2ccccc2[nH]1` [compound 6, S6], which Kd is on record?
A: 399 µM

Q: And the kon?
A: 765 M⁻¹ s⁻¹

Q: What about the koff (read-out: kdis) of the same compound?
A: 0.305 s⁻¹
